Measured values: ChEMBL document CHEMBL6096690, “Synthesis and Biological Evaluation of Peripheral HTR2A Antagonists for Colorectal Cancer” (J Med Chem, 2025)
pIC50: −log10 of the molar value.

Assays:
[1] = biological target: 5-hydroxytryptamine receptor 2A (Homo sapiens, UniProt P28223); assay: Antagonist activity at 5HTR2A (unknown origin) assessed as inhibition of 5-HTR2A
[2] = biological target: hERG (KCNH2) (Homo sapiens, UniProt Q12809); assay: Inhibition of hERG at 10 uM relative to control; type: toxicity
Chain of hERG (KCNH2) (Q12809 whole entry): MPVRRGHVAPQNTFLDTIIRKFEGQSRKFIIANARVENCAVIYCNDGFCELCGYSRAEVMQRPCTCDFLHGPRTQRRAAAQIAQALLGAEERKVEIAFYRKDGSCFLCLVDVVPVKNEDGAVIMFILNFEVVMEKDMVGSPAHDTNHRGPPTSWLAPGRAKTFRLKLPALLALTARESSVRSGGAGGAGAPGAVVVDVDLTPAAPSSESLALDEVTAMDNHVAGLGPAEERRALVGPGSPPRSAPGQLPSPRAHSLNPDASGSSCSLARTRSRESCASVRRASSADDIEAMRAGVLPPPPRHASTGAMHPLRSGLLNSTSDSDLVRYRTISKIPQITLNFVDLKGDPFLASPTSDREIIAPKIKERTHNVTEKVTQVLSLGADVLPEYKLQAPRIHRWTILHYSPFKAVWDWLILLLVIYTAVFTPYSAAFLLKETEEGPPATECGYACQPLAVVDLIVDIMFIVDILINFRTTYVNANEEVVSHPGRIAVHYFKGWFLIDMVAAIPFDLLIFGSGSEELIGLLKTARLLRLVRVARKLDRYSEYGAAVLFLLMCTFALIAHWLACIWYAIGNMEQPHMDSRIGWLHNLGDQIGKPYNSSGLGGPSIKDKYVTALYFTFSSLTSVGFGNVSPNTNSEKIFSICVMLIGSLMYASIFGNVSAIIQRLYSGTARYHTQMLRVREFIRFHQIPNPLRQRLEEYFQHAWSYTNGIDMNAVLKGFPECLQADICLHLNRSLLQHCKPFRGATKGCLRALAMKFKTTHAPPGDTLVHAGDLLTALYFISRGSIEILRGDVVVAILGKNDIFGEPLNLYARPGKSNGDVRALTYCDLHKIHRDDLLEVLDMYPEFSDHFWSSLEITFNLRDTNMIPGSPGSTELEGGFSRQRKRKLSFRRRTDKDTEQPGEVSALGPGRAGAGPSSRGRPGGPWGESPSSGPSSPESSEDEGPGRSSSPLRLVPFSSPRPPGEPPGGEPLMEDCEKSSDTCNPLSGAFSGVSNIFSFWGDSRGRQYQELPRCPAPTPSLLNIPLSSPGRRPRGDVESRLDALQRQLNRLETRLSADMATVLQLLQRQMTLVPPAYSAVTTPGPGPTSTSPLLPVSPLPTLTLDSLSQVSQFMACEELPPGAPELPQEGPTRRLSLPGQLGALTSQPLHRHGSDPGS

Chain of 5-hydroxytryptamine receptor 2A (P28223 whole entry): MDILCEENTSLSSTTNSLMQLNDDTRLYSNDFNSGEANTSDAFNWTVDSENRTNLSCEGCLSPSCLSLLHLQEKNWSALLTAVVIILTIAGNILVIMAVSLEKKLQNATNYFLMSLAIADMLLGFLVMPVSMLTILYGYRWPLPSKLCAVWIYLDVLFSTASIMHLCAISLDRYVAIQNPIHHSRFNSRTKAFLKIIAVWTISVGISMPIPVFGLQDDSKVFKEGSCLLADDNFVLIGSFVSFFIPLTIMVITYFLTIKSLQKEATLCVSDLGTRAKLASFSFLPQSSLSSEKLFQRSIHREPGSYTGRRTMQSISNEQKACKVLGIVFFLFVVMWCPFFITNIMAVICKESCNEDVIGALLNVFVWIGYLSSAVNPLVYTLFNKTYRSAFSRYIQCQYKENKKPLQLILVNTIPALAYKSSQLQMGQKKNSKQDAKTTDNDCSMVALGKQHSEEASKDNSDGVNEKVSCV

pIC50 [1] | Structure (SMILES) | inhibition at 10 µM [2] [%]
7.04 | O=C(NCc1ccc(OCC(O)CN2CCN(c3cccc(Cl)c3Cl)CC2)cc1)N(Cc1ccc(F)cc1)C1CCNCC1 (stereo not drawn) | 
7.44 | O=C(NCc1ccc(OCC(O)CN2CCN(c3noc4cc(F)ccc34)CC2)cc1)N(Cc1c(F)cc(F)cc1F)C1CCNCC1 (stereo not drawn) | 83.6
